In this assay the target is T1, Receptor-interacting serine/threonine-protein kinase 1 (Homo sapiens, UniProt Q13546).
T1 sequence (Q13546 whole entry): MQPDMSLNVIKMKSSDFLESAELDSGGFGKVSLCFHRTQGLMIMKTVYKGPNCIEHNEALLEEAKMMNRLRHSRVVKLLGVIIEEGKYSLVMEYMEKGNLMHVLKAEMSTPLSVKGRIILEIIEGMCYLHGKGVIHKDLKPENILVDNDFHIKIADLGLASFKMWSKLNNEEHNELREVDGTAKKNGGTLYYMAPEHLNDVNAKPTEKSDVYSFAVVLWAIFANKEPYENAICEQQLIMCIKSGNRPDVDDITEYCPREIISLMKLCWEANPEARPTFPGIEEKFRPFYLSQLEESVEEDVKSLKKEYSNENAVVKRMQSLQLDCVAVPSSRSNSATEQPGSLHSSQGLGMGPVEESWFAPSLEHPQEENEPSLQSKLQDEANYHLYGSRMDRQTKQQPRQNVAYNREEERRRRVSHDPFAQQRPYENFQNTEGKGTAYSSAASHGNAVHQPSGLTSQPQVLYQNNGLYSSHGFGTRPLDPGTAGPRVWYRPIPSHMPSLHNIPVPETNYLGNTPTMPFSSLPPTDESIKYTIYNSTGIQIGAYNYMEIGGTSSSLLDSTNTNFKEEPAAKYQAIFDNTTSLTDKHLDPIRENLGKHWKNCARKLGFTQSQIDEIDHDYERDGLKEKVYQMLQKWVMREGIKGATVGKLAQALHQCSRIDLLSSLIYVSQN
Description: Biochemical Assay: The ability of the receptor interacting protein kinase (RIPK1) to catalyze the hydrolysis of adenosine-5′-triphosphate (ATP) is monitored using the Transcreener ADP (adenosine-5′-diphosphate) assay (BellBrook Labs).

The structures appear in SMILES notation.

Turning to `CN1C(=O)[C@@H](NC(=O)c2n[nH]c3c2CC(C)(C)OC3)COc2ccccc21`, the Ki (commonly a measure of affinity in units of concentration, obtained from inhibition or displacement) stood at 469 nM.
